In US5360796A, “Imidazo[1,2-a]pyridinylalkyl phosphonic acid compounds for treatment of neurotoxic injury” (G. D. Searle & Co., priority 1991, dated 1994):

Target: NMDA receptor
Experiment: NMDA-Selective Glutamate Binding Assay (L-[3H]glutamate)
Set-up: species or system rat
Conditions: 12.5 nM L-[3H]glutamate, synaptic plasma membranes, pH 7.4, 0-4° C., 10 min; read-out: NMDA Receptor Binding Data, Ki IC50 Binding NMDA
Description: Synaptic plasma membranes (SPM) were prepared as previously described [Monahah, J. B. and Michel, J., "Identification and Characterization of an N-methyl-D-aspartate-specific L[^3 H]glutamate Recognition Site in Synaptic Plasma Membranes, J. Neurochem., 48, 1699-1708 (1987)]. The SPM were stored at a concentration of 10-15 mg/ml in 0.32M sucrose, 0.5 mM EDTA, 1 mM MgSO4, 5 mM Tris/SO4, pH 7.4, under liquid nitrogen. The identity and purity of the subcellular fractions were confirmed by both electron microscopy and marker enzymes. Protein concentrations were determined by using a modification of the method of Lowry [Ohnishi, S. T. and Barr, J. K., "A Simplified Method of Quantitating Proteins using the Biuret and Phenol Reagents", Anal. Biochem., 86, 193-197 (1978)]. The SPM were treated identically for the [^3 H]AMPA (QUIS), [^3 H]kainate and sodium-dependent L-[^3 H]-glumatate binding assays. The SPM were thawed at room temperature, diluted twenty-fold with 50mM Tris/acetate, pH 7.4, incubated at 37° C. for 30 minutes, and centrifuged at 100,000 g for 15 minutes. The dilution, incubation, and centrifugation was repeated a total of three times. Prior to use in the NMDA-specific L-[^3 H]-glutamate binding assay the SPM were thawed, diluted twenty fold with 50 mM Tris/acetate, pH 7.4 containing 0.04% (v/v) Triton X-100, incubated for 30 minutes at 37° C. and centrifuged as described above. The Triton X-100 treated membranes were washed with 50 mM Tris/acetate, pH 7.4 and centrifuged at 100,000 g for 15 minutes a total of four times. […] The basic procedure for the receptor subclass binding assays was similar. This general method involved adding the radioligand (12.5 nM L-[^3 H] glutamate; 0.5 nM [^3 H]kainate or 10 nM [^3 H]AMPA) to the appropriate concentration of the test compound and initiating the assay by the addition of ice cold synaptic plasma membranes (0.2-0.45 mg). The binding assays were performed in 1.5 mL centrifuge tubes with the total volume adjusted to 1.0 mL. Additions of test compounds were made in 50 mM Tris/acetate, pH 7.4 and incubations were carried out at 0°-4° C. The incubation time for the NMDA and the AMPA binding assays was 10 minutes, for the kainate binding assay 60 minutes and for the sodium-dependent glutamate binding assay 15 minutes. The AMPA binding assay contained 100 mM KSCN and the sodium-dependent glutamate binding assay contained 150 mM sodium acetate in addition to the previously described reagents. To terminate the incubation, the samples were centrifuged for 15 minutes at 12,000 g and 4° C. in a Beckman Microfuge 12. The supernatant was aspirated and the pelleted membranes dissolved in Beckman BTS-450 tissue solubilizer for a minimum of 6 hours at room temperature. Beckman MP scintillation cocktail containing 7 mL/1 acetic acid was then added and the samples counted on a Beckman LS 5800 or 3801 liquid scintillation counter with automatic corrections for quenching and counting efficiency. Nonspecific binding was defined as the residual binding in the presence of either excess L-glutamate (0.1-0.4 mM), kainate (0.01 mM), or NMDA (0.5 mM), and was 15-25% of the total binding in the NMDA binding assay, 19-27% in the AMPA binding assay, 20-30% in the kainate binding assay and 10-15% in the sodium-dependent binding assay. Radioligand binding to the synaptic plasma membranes was analyzed using Scatchard and Hill transformations and the Ki values of the compounds determined using logit-log transformations. Calculations and regression analysis were performed using templates developed for Lotus 1, 2, 3 as previously described [Pullan, L. M. "Automated Radioligand Receptor Binding Analysis with Templates for Lotus", Computer Appln. Biosci., 3, 131 (1987)]. Binding results are reported in Table I for example compounds of the invention.

## O=C(O)c1cn2c(CP(=O)(O)O)cccc2n1 [Example 7, 5-(phosphonomethyl)imidazo[1,2-a]pyridine-2-carboxylic acid]
  Ki: 2400 nM
